Here are results for two molecules from patent US4444786A, “Carbamate derivatives, insecticidal, miticidal or nematocidal compositions containing the same, and process for preparing the same” (priority 1981, dated 1984).

The test system of data set [1] is southern root-knot nematode (Meloidogyne incognita). As to the kind of experiment: Test Example 3: formation of nodules on tomato roots in soil contaminated with nematode larvae, one month. In kind it is in vivo. From the text:
Granules containing 10% of the compound to be tested were mixed, in a specified amount, with soil contaminated with larvae of southern root-knot nematode (Meloidogyne incognita), and tomato seedlings were immediately transplanted in the soil. One month later, the roots of the plant were checked for the formation of nodules. Two test areas, 2×2 m^2 each, were used for the compound as applied in each specified amount.

Data set [2] relates to tobacco cutworm (Spodoptera litura). As to the kind of experiment: Test Example 1: mortality of third-instar larvae of tobacco cutworm on cabbage, three days. To be noted: 72 h, 100 ppm active ingredient, 3 days. The format is in vivo. How it is done:
Ten third-instar larvae of tobacco cutworm (Spodoptera litura) were placed on a cabbage (one-month-old seedlings) planted in a pot, and a 50% emulsion of the compound to be tested was diluted to a specified concentration and applied to the leaves of the plant to fully wet them. The test compound of each specified concentration was tested on two pots.

Data set [3] deals with green rice leafhopper (Nephotettix cincticeps). Briefly: Test Example 2: mortality of female adults of green rice leafhopper on paddy rice, three days. In kind it is in vivo. To be noted: 72 h, 3 days. How it is done: An emulsion of specified concentration was prepared from a 50% wettable powder of the compound to be tested and applied to the leaves of paddy rice (one-month-old seedlings) planted in a pot to fully wet the leaves. After air-drying the emulsion, the pot was covered with a net cage, into which 10 female adults of green rice leafhopper (Nephotettix cincticeps) were released. The compound of each specified concentration was tested on two pots.

For another data set, the system named is warm-blooded animals. The note with it: known, background; cited from earlier work.
For a further data set, the system named is noxious insects. The note with it: known, background; cited from earlier work.
The test system of data set [4] is house fly (Musca domestica). As to the kind of experiment: Test Example 4: local application to house fly, LD50 by Probit method. The format is in vivo. To be noted: topical, 24 hours. How it is done: The compound to be tested was dissolved in a predetermined amount of acetone. The solution was diluted to various concentrations and locally applied to house fly (Musca domestica).

Data set [5] in a line: Test Example 5: acute toxicity by oral administration against male mice. The note with it: mouse, in vivo, seventh day, Litchfield-Wilcoxon method. How it is done:
The compound to be tested was evaluated in terms of acute toxicity by oral administration against male mice.

For Bis(2-chloro-1-methylethyl)ethane, the “Degree of Formation of Nodules” value is 4 (75 to 100%) in data set [1] (granules (10%) applied at 10 kg/10 a), 4 (75 to 100%) in data set [1] (granules (10%) applied at 25 kg/10 a) and 2 (25 to 49%) in data set [1] (granules (10%) applied at 50 kg/10 a).
For the molecule `CNC(=O)ON=C(C)SC` [Control*, S-methyl N-[(methylcarbamoyl)oxy]thioacetamidate, reference compound], in data set [2], the mortality at 100 ppm is 80%. The mortality at 200 ppm in data set [3] (200 ppm active ingredient) turned out to be 90%. In addition, the mortality at 400 ppm in data set [3] (400 ppm active ingredient) is 100%. This molecule showed a mortality at 800 ppm in data set [3] (800 ppm active ingredient) of 100%. The “toxicity to warm-blooded animals” value in the data set with warm-blooded animals is given as “high toxicity to warm-blooded animals”. Further, the insecticidal activity result with noxious insects is “high insecticidal activity”. In addition, the median lethal dose (LD50) in data set [4] was determined as 6.8 mg/kg. The LD50 at 168 h in data set [5] was determined as 16 mg/kg.

By mortality is commonly meant the share of the test organisms that died. A higher mortality goes with fewer survivors. By LD50 is commonly meant the dose expected to kill half of the subjects tested. A high value points to lower toxicity.
